For one test, the system named is AGS cells. Kind of test: Cell viability assay (Cell Counting Kit-8), KRAS G12D. The format is cell-based. The note with it: Homo sapiens, 72 hrs incubation, CCK-8. On the procedure: (§1) The purpose of this cellular assay was to determine the effects of test compounds on the proliferation of human cancer cell lines NCI-H358 (ATCC-CRL5807) cells, AGS (ATCC-CRL-1739) cells, SW620 (ATCC-CCL-227) over a 3-day treatment period by quantifying the amount of NADPH present at endpoint using Cell Counting Kit-8.
(§2) Cells were seeded at 5,000 cells/well (NCI-H358), 2,000 cells/well (AGS) 2,000 cells/well (SW620) in 96-well assay plates (Corning-3699) and incubated overnight. On the day of the assay, diluted compounds were then added in a final concentration of 0.5% DMSO. After 72 hrs incubation, a tenth of the volume of cell counting kit 8 (Dnjindo-CK04) was added into each well. Read the signal (OD450 minus OD650) using EnVision after 2 hrs incubation. IC50 was determined by fitting a 4-parameter sigmoidal concentration response model.
For orientation: Formazan colour is commonly taken as a measure of viable cells.

The next test relates to NCI-H358 cells. Kind of test: Cell viability assay (Cell Counting Kit-8), KRAS G12C. The format is cell-based. Conditions: Homo sapiens, 72 hrs incubation, CCK-8. On the procedure:
as §1, §2

Test [1] deals with KRAS G12D binding to BRAF (Homo sapiens (Human), UniProt P01116+P62937, G12D). Briefly: KRAS-BRAF with CYPA (500 nM) interaction assay (TR-FRET), G12D. Conditions: GMPPNP loaded 6His-KRAS, GST-BRAF RBD, 3 hours. On the procedure: (§3) KRAS-BRAF with CYPA (500 nM) Interaction Assay
(§4) In this example, TR-FRET was also used to measure the compound or compound-CYPA dependent disruption of the KRAS G12C-BRAF complex. This protocol was also used to measure disruption of KRAS G12D or KRAS G12V binding to BRAF by a compound of the invention, respectively. In assay buffer containing 25 mM HEPES PH=7.4 (4-(2-hydroxyethyl)-1-piperazineethanesulfonic acid, Thermo, 15630080), 0.002% Tween20, 0.1% BSA, 100 mM NaCl, 5 mM MgCl2, 10 μM GMPPNP (Guanosine 5′-[β,γ-imido]triphosphate trisodium salt hydrate, Sigma, G0635), tagless CYPA, GMPPNP loaded 6His-KRAS proteins, and GST-BRAF^RBD were mixed in a well of a 384-well assay plate at final concentrations of 50 nM, 6.25 nM and 1 nM, respectively. Compound was present in plate wells as a 16-point 3-fold dilution series starting at a final concentration of 10 μM and incubated for 3 hours. A mixture of MAb Anti-6His-XL665 (Cisbio, 61HISXLB) and Mab anti-GST-TB cryptate (Cisbio, 61GSTTLB) was then added at a final concentration of 6.67 nM and 0.21 nM, respectively, and the plate was incubated for an additional 1.5 hours. TR-FRET signal was read on a PHERstar FSX microplate reader (Ex320 nm, Em 665/615 nm). Compounds that facilitate disruption of the KRAS-BRAF complex were identified as those eliciting a decrease in the TR-FRET ratio relative to DMSO control wells.
(TR-FRET usually uses a lanthanide donor and a delayed reading to cut background.)

In test [2] the test system is phosphorylation of ERK, KRAS G12C in NCI-H358 cells. Briefly: pERK inhibition assay, KRAS G12C. The format is cell-based. The note with it: Homo sapiens, 4 hours of incubation. On the procedure: (§5) This assay is to measure the ability of test compounds in inhibiting the phosphorylation of ERK, the downstream signaling of KRAS G12C in NCI-H358 cells, KRAS G12D in AGS cells, and KRAS G12V in SW620. NCI-H358 (ATCC-CRL5807) cells, AGS (ATCC-CRL-1739) cells, SW620 (ATCC-CCL-227) cells were all grown and maintained using RPMI-1640 medium (Thermo Fisher Scientific) with 10% fetal bovine serum and 1% penicillin/streptomycin. On the day prior to compound addition, cells were plated in tissue culture-treated 96 well plates (Corning-3699) at a density of 30,000 cell/well, 20,000 cell/well, 30,000 cell/well for NCI-H358, AGS and SW620 respectively, and allowed for attachment overnight. Diluted compounds were then added in a final concentration of 0.5% DMSO. After 4 hours of incubation, the medium was removed, 100 μL of 4% formaldehyde was added, and the assay plates were incubated at room temperature for 20 minutes. The plates were then washed once with phosphate buffered saline (PBS), and permeabilized with 100 μL of chilled methanol for 10 minutes. Non-specific antibody binding to the plates was blocked using 50 μL 1×BSA blocking buffer (Thermo-37520, 10-fold dilution by Phosphate-Buffered Saline Tween (PBST) for at least 1 hour at room temperature.
(§6) The amount of phosphor-ERK was determined using an antibody specific for phosphorylated form of ERK. Primary antibody (pERK, CST-4370, Cell Signaling Technology) was diluted 1:300 in blocking buffer, with 50 μL aliquoted to each well, and incubated overnight at 4° C. Cells was washed five times for 5 minutes with PBST. Secondary antibody (HRP-linked anti-rabbit IgG, CST-7074, Cell Signaling Technology) was diluted 1:1000 in blocking buffer, and 50 μL was added to each well and incubated 1-2 hrs at room temperature. Cells was washed 5 times for 5 minutes with PBST, 100 μL TMB ELISA substrate (abcam-ab171523) were added and gently shake for 20 minutes. 50 μL stop solution (abcam-ab171529) were added, and then read the signal (OD450) by EnVision.
(§7) IC50 was determined by fitting a 4-parameter sigmoidal concentration response model.

Test [3] concerns the target KRAS G12V binding to BRAF (Homo sapiens (Human), UniProt P01116+P62937, G12V). Kind of test: KRAS-BRAF with CYPA (500 nM) interaction assay (TR-FRET), G12V. Conditions: GMPPNP loaded 6His-KRAS, GST-BRAF RBD, 3 hours. On the procedure: as §3, §4
The next test addresses KRAS G12C-BRAF complex (Homo sapiens (Human), UniProt P01116+P62937, G12C). Briefly: KRAS-BRAF with CYPA (500 nM) interaction assay (TR-FRET), G12C. The format is binding. The note with it: GMPPNP loaded 6His-KRAS, GST-BRAF RBD, 3 hours. On the procedure: as §3, §4
The test system of a further test is SW620 cells. Kind of test: Cell viability assay (Cell Counting Kit-8), KRAS G12V. The format is cell-based. The note with it: Homo sapiens, SW-620, 72 hrs incubation, CCK-8. On the procedure:
as §1, §2

For test [4], the system named is phosphorylation of ERK, KRAS G12V in SW620. Briefly: pERK inhibition assay, KRAS G12V. It is filed as cell-based. The note with it: Homo sapiens, SW-620; SW620 cells, 4 hours of incubation. On the procedure: as §5, §6, §7
For test [5], the system named is phosphorylation of ERK, KRAS G12D in AGS cells. Kind of test: pERK inhibition assay, KRAS G12D. The note with it: Homo sapiens, 4 hours of incubation. It is filed as cell-based. On the procedure: as §5, §6, §7

Chain of KRAS G12C-BRAF complex (P01116-2 other isoform, or with tags, fused parts or gaps G12C): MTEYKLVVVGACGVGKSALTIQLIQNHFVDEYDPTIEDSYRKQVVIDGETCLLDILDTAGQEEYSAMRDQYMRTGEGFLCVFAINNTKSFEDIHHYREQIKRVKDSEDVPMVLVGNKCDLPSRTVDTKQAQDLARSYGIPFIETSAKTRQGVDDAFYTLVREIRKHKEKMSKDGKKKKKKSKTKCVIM
Chain of KRAS G12C-BRAF complex (P62937 whole entry): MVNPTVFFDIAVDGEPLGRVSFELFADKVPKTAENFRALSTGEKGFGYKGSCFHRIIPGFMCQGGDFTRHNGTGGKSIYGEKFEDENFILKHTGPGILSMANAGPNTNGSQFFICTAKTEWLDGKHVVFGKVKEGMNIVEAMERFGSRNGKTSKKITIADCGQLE
Chain of KRAS G12V binding to BRAF (P01116-2 other isoform, or with tags, fused parts or gaps G12V): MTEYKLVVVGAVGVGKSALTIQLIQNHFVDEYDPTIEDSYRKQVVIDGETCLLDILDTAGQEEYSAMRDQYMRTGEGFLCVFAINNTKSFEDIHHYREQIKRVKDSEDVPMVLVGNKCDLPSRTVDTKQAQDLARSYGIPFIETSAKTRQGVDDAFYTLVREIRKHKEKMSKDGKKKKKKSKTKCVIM
Chain of KRAS G12V binding to BRAF (P62937 whole entry): as the sequence (P62937 whole entry) above
Chain of KRAS G12D binding to BRAF (P01116-2 other isoform, or with tags, fused parts or gaps G12D): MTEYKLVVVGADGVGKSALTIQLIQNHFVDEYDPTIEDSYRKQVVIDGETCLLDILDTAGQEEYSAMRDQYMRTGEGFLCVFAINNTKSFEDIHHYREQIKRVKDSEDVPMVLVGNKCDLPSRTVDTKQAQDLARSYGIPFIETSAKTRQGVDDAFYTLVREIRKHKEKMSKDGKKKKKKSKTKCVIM
Chain of KRAS G12D binding to BRAF (P62937 whole entry): as the sequence (P62937 whole entry) above

As for `CCn1c(-c2cc(N3CCN(C)CC3)cnc2[C@H](C)OC)c2c3cc(c(F)cc31)-c1csc(n1)C[C@H](NC(=O)[C@H]1C[C@@H]1C)C(=O)N1CCC[C@H](N1)C(=O)OCC(C)(C)C2` (atropisomer, axis not shown; (M)) [Example 1, (1S,2S)—N-[(7S,13S)-21-ethyl-24-fluoro-(20M)-20-[2-[(1S)-1-methoxyethyl]-5-(4-methylpiperazin-1-yl)-3-pyridyl]-17,17-dimethyl-8,14-dioxo-15-oxa-4-thia-9,21,27,28-tetrazapentacyclo[17.5.2.1^2,5.1^9,13.0^22,26]octacosa-1(25),2,5(28),19,22(26),23-hexaen-7-yl]-2-methyl-cyclopropanecarboxamide], the IC50 (usually the concentration that inhibits the measured activity by half) in the test on AGS cells is 4.63 µM; in the test with NCI-H358 cells, 0.018 µM; in test [1], 0.915 µM; in [2] it was 0.011 µM; in test [3], 0.211 µM; at KRAS G12C-BRAF complex, 0.108 µM. Further, the IC50 in the test with SW620 cells came to 0.009 µM; in [4] it was 0.004 µM; in test [5], 0.034 µM.
With `CCn1c(-c2cc(N3CCN(C)CC3)cnc2[C@H](C)OC)c2c3cc(c(F)cc31)-c1csc(n1)C[C@H](NC(=O)[C@H]1[C@@H]3COC[C@@H]31)C(=O)N1CCC[C@H](N1)C(=O)OCC(C)(C)C2` (atropisomer, axis not shown; (M)) [Example 2, (1R,5S)—N-[(7S,13S)-21-ethyl-24-fluoro-(20M)-20-[2-[(1S)-1-methoxyethyl]-5-(4-methylpiperazin-1-yl)-3-pyridyl]-17,17-dimethyl-8,14-dioxo-15-oxa-4-thia-9,21,27,28-tetrazapentacyclo[17.5.2.1^2,5.1^9,13.0^22,26]octacosa-1(25),2,5(28),19,22(26),23-hexaen-7-yl]-3-oxabicyclo[3.1.0]hexane-6-carboxamide], the IC50 in the test with AGS cells amounted to 0.059 µM; in the test with NCI-H358 cells, 0.011 µM; in test [1], 0.957 µM; in test [2], 0.009 µM; in test [3], 0.174 µM; at KRAS G12C-BRAF complex it was 0.134 µM. The half-maximal inhibitory concentration (IC50) is 0.005 µM with SW620 cells, 0.003 µM in test [4] and 0.018 µM in test [5].
For the molecule `CCn1c(-c2cc(N3CCN(C)CC3)cnc2[C@H](C)OC)c2c3cc(c(F)cc31)-c1csc(n1)C[C@H](NC(=O)[C@H]1C[C@@H]1C(F)F)C(=O)N1CCC[C@H](N1)C(=O)OCC(C)(C)C2` (atropisomer, axis not shown; (M)) [Example 3, (1S,2S)-2-(difluoromethyl)-N-[(7S,13S)-21-ethyl-24-fluoro-(20M)-20-[2-[(1S)-1-methoxyethyl]-5-(4-methylpiperazin-1-yl)-3-pyridyl]-17,17-dimethyl-8,14-dioxo-15-oxa-4-thia-9,21,27,28-tetrazapentacyclo[17.5.2.1^2,5.1^9,13.0^22,26]octacosa-1(25),2,5(28),19,22(26),23-hexaen-7-yl]cyclopropanecarboxamide], the IC50 in the test with AGS cells came to 0.197 µM; in the test with NCI-H358 cells it was 0.0116 µM; in test [1], 1.72 µM; in test [2] it was 0.011 µM; in [3], 0.243 µM; at KRAS G12C-BRAF complex it was 0.196 µM. The IC50 in the test with SW620 cells came to 0.008 µM; in test [4], 0.005 µM; in test [5], 0.029 µM.
Take `CO[C@@H](C)c1ncc(N2CCN(C)CC2)cc1-c1c2c3cc(c(F)cc3n1CC(F)(F)F)-c1csc(n1)C[C@H](NC(=O)[C@H]1C[C@@H]1C)C(=O)N1CCC[C@H](N1)C(=O)OCC(C)(C)C2` (atropisomer, axis not shown; (M)) [Example 4, (1S,2S)—N-[(7S,13S)-24-fluoro-(20M)-20-[2-[(1S)-1-methoxyethyl]-5-(4-methylpiperazin-1-yl)-3-pyridyl]-17,17-dimethyl-8,14-dioxo-21-(2,2,2-trifluoroethyl)-15-oxa-4-thia-9,21,27,28-tetrazapentacyclo[17.5.2.1^2,5.1^9,13.0^22,26]octacosa-1(25),2,5(28),19,22(26),23-hexaen-7-yl]-2-methyl-cyclopropanecarboxamide]: the IC50 in the test with AGS cells came out at 1.27 µM; in the test with NCI-H358 cells, 0.019 µM; in [1], 0.544 µM; in test [2] it was 0.02 µM; in test [3] it was 0.095 µM; on KRAS G12C-BRAF complex, 0.036 µM. For the same molecule, the IC50 in the test with SW620 cells was found to be 0.013 µM; in test [4], 0.007 µM; in test [5] it was 0.047 µM.
In the case of `CCn1c(-c2cc(N3CCN(CC(F)(F)F)CC3)cnc2[C@H](C)OC)c2c3cc(c(F)cc31)-c1csc(n1)C[C@H](NC(=O)[C@H]1C[C@@H]1C)C(=O)N1CCC[C@H](N1)C(=O)OCC(C)(C)C2` (atropisomer, axis not shown; (M)) [Example 7, (1S,2S)—N-[(7S,13S)-21-ethyl-24-fluoro-(20M)-20-[2-[(1S)-1-methoxyethyl]-5-[4-(2,2,2-trifluoroethyl)piperazin-1-yl]-3-pyridyl]-17,17-dimethyl-8,14-dioxo-15-oxa-4-thia-9,21,27,28-tetrazapentacyclo[17.5.2.1^2,5.1^9,13.0^22,26]octacosa-1(25),2,5(28),19,22(26),23-hexaen-7-yl]-2-methyl-cyclopropanecarboxamide], the IC50 with AGS cells was 0.389 µM; with NCI-H358 cells, 0.074 µM; in [1], more than 10 µM; in test [2] it was 0.071 µM; in test [3], 0.697 µM; against KRAS G12C-BRAF complex, 0.192 µM. Moreover, the figures for the IC50 (in the test on SW620 cells; in test [4]; in test [5]) were 0.027 µM, 0.02 µM and 0.115 µM, respectively.
